Experimental data from the supplement of paper PMC11451515.

How the values were obtained:
Conditions in all cases: 48 h
SEM cells [1] = assay: AUC of viability dose-response curve (% viability x log10 dose units); higher = less sensitive
Summary of the method: (§1)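 Seeding of medium-adapted leukemia cells was at 500 or 1000 cells/well in 1536-well plates, followed by 48 h at 37°C with library compounds in DMSO at 11 threefold doses from 47 μM to 0.79 nM. CellTiter-Glo One luminescence was normalised per plate to DMSO and cell-free wells and fitted as a four-parameter log-logistic function of log10 dose. Area under the curve was integrated by trapezoidal rule, with curves exceeding full viability scaled and curves failing quality control removed.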

P12-Ichikawa [2] = assay: as above
Summary of the method: as §1

NOMO1 [3] = assay: as above
Summary of the method: as §1

SEM cells [4] = assay: cell viability relative to DMSO control; higher = less cytotoxic
Summary of the method: (§2)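 Library compounds in DMSO were pin-dosed in an 11-point threefold series (47 μM to 0.79 nM) onto leukemia cells in 1536-well plates (5 μl). Plates held 500 cells/well of NOMO1 or SEM or 1000 cells/well of P12-Ichikawa, each adapted for at least four passages in each medium. Luminescence was read with CellTiter-Glo One after 48 h at 37°C. Viability means the per-plate percentage relative to DMSO wells, using cell-free wells as background.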

P12-Ichikawa [5] = assay: as above
Summary of the method: as §2

NOMO1 [6] = assay: as above
Summary of the method: as §2

N#Cc1ccc(COC[C@H]2O[C@@H](n3c(NCc4ccc(Cl)c(Cl)c4)nc4c(N)ncnc43)[C@H](O)[C@@H]2O)cc1
AUC of viability dose-response curve
Conditions | NOMO1 [3] | P12-Ichikawa [2] | SEM cells [1]
HPLM + 10% dialyzed FBS | 420 | 458 | 465
RPMI 5 mM glucose + 10% FBS | 428 | 414 | 411
RPMI 5 mM glucose + 10% dialyzed FBS | 420 | 415 | 431

CCCc1cc(C(N)=S)ccn1
AUC of viability dose-response curve
Conditions | NOMO1 [3] | P12-Ichikawa [2] | SEM cells [1]
HPLM + 10% dialyzed FBS | 470 | 466 | 446
RPMI 5 mM glucose + 10% FBS | 472 | 436 | 469
RPMI 5 mM glucose + 10% dialyzed FBS | 465 | 472 | 475

SEM cells [4], HPLM + 10% dialyzed FBS
Conditions | cell viability [%]
0.000781 µM | 92.5
0.00234 µM | 110
0.00702 µM | 111
0.0211 µM | 113
0.0632 µM | 114
0.19 µM | 117
0.569 µM | 85.6
1.71 µM | 56.3
5.12 µM | 119
15.4 µM | 130
46.1 µM | 133

C[C@@H](Oc1cc(-c2cnn(C3CCNCC3)c2)cnc1N)c1c(Cl)ccc(F)c1Cl
AUC of viability dose-response curve
Conditions | HPLM + 10% dialyzed FBS | RPMI 5 mM glucose + 10% FBS | RPMI 5 mM glucose + 10% dialyzed FBS
NOMO1 [3] | 391 | 429 | 424
P12-Ichikawa [2] | 419 | 415 | 400

cell viability [%]
Conditions | NOMO1 [6] | P12-Ichikawa [5] | SEM cells [4]
HPLM + 10% dialyzed FBS, 0.000781 µM | – | 118 | 105
HPLM + 10% dialyzed FBS, 0.00234 µM | – | 119 | 121
HPLM + 10% dialyzed FBS, 0.00702 µM | – | 115 | 123
HPLM + 10% dialyzed FBS, 0.0211 µM | – | 118 | 124
HPLM + 10% dialyzed FBS, 0.0632 µM | – | 115 | 121
HPLM + 10% dialyzed FBS, 0.19 µM | – | 120 | 114
HPLM + 10% dialyzed FBS, 0.569 µM | – | 111 | 111
HPLM + 10% dialyzed FBS, 1.71 µM | – | 95.7 | 110
HPLM + 10% dialyzed FBS, 5.12 µM | – | 90.6 | 61.6
HPLM + 10% dialyzed FBS, 15.4 µM | – | 73.5 | 35.1
HPLM + 10% dialyzed FBS, 46.1 µM | – | 18.9 | 23.5
RPMI 5 mM glucose + 10% FBS, 0.000781 µM | 118 | 116 | 81.4
RPMI 5 mM glucose + 10% FBS, 0.00234 µM | 116 | 118 | 78.5
RPMI 5 mM glucose + 10% FBS, 0.00702 µM | 113 | 123 | 85.6
RPMI 5 mM glucose + 10% FBS, 0.0211 µM | 115 | 116 | 83.6
RPMI 5 mM glucose + 10% FBS, 0.0632 µM | 131 | 124 | 82.5
RPMI 5 mM glucose + 10% FBS, 0.19 µM | 129 | 117 | 71.3
RPMI 5 mM glucose + 10% FBS, 0.569 µM | 108 | 115 | 83.4
RPMI 5 mM glucose + 10% FBS, 1.71 µM | 107 | 113 | 77.3
RPMI 5 mM glucose + 10% FBS, 5.12 µM | 96.3 | 82.2 | 58.4
RPMI 5 mM glucose + 10% FBS, 15.4 µM | 71.8 | 68.9 | 29.5
RPMI 5 mM glucose + 10% FBS, 46.1 µM | 56.2 | 21.4 | 13.6
RPMI 5 mM glucose + 10% dialyzed FBS, 0.000781 µM | 114 | – | 112
RPMI 5 mM glucose + 10% dialyzed FBS, 0.00234 µM | 116 | – | 124
RPMI 5 mM glucose + 10% dialyzed FBS, 0.00702 µM | 107 | – | 114
RPMI 5 mM glucose + 10% dialyzed FBS, 0.0211 µM | 124 | – | 114
RPMI 5 mM glucose + 10% dialyzed FBS, 0.0632 µM | 118 | – | 97.1
RPMI 5 mM glucose + 10% dialyzed FBS, 0.19 µM | 119 | – | 113
RPMI 5 mM glucose + 10% dialyzed FBS, 0.569 µM | 119 | – | 120
RPMI 5 mM glucose + 10% dialyzed FBS, 1.71 µM | 110 | – | 116
RPMI 5 mM glucose + 10% dialyzed FBS, 5.12 µM | 83 | – | 91.5
RPMI 5 mM glucose + 10% dialyzed FBS, 15.4 µM | 64.8 | – | 33.3
RPMI 5 mM glucose + 10% dialyzed FBS, 46.1 µM | 47.4 | – | 28.3

OC[C@H]1O[C@@H](O[C@@H]2O\C=C(/[C@H]3C\C=C(CO)/[C@@H]23)C(O)=O)[C@H](O)[C@@H](O)[C@@H]1O
AUC of viability dose-response curve
Conditions | NOMO1 [3] | P12-Ichikawa [2] | SEM cells [1]
HPLM + 10% dialyzed FBS | 453 | 449 | 452
RPMI 5 mM glucose + 10% FBS | 449 | 468 | 475
RPMI 5 mM glucose + 10% dialyzed FBS | 455 | 418 | 462

CCN1\C=C(\C(O)=O)C(=O)C2=C1C=C(N3CCNCC3)C(=C2)F
AUC of viability dose-response curve
Conditions | NOMO1 [3] | P12-Ichikawa [2] | SEM cells [1]
HPLM + 10% dialyzed FBS | 430 | 456 | 385
RPMI 5 mM glucose + 10% FBS | 465 | 433 | 392
RPMI 5 mM glucose + 10% dialyzed FBS | 455 | 449 | 404

cell viability [%], SEM cells [4]
Conditions | HPLM + 10% dialyzed FBS | RPMI 5 mM glucose + 10% dialyzed FBS
0.000781 µM | 95 | 117
0.00234 µM | 130 | 124
0.00702 µM | 125 | 125
0.0211 µM | 136 | 129
0.0632 µM | 116 | 108
0.19 µM | 59.4 | 48.3
0.569 µM | 112 | 114
1.71 µM | 77.9 | 104
5.12 µM | 90.6 | 98
15.4 µM | 59.8 | 101
46.1 µM | 78.8 | 77.8

CC(C)(CO)[C@@H](O)C(=O)NCCC(=O)O
AUC of viability dose-response curve
Conditions | NOMO1 [3] | P12-Ichikawa [2] | SEM cells [1]
HPLM + 10% dialyzed FBS | 440 | 466 | 469
RPMI 5 mM glucose + 10% FBS | 470 | 471 | 471
RPMI 5 mM glucose + 10% dialyzed FBS | 461 | 463 | 465

NC(=O)c1cccnc1
AUC of viability dose-response curve
Conditions | NOMO1 [3] | P12-Ichikawa [2] | SEM cells [1]
HPLM + 10% dialyzed FBS | 438 | 451 | 448
RPMI 5 mM glucose + 10% FBS | 464 | 466 | 449
RPMI 5 mM glucose + 10% dialyzed FBS | 409 | 466 | 457

C/C=C/C/C=C/CCC(=O)[C@H]1O[C@H]1C(N)=O
AUC of viability dose-response curve
Conditions | NOMO1 [3] | P12-Ichikawa [2] | SEM cells [1]
HPLM + 10% dialyzed FBS | 457 | 470 | 466
RPMI 5 mM glucose + 10% FBS | 458 | 473 | 464
RPMI 5 mM glucose + 10% dialyzed FBS | 476 | 469 | 464

cell viability [%], SEM cells [4]
Conditions | HPLM + 10% dialyzed FBS | RPMI 5 mM glucose + 10% FBS
0.000781 µM | 105 | 106
0.00234 µM | 107 | 117
0.00702 µM | 118 | 132
0.0211 µM | 123 | 110
0.0632 µM | 117 | 121
0.19 µM | 126 | 120
0.569 µM | 109 | 132
1.71 µM | 124 | 111
5.12 µM | 113 | 128
15.4 µM | 112 | 118
46.1 µM | 71.5 | 55.3
